ChEMBL document CHEMBL6127120, “Antiplasmodial and Insecticidal Activities of Third-Generation Ivermectin Hybrids” (J Med Chem, 2024)
Active and inactive are the calls of the source. The rule behind the calls is not given here.

What was measured:
Type in all cases: functional, organism-based
[1] = system: Plasmodium berghei; experiment: Anti-plasmodial activity against pre-erythrocytic stage Plasmodium berghei infected in human Huh-7 cells by bioluminescence assay
[2] = system: Plasmodium falciparum; experiment: Anti-plasmodial activity against erythrocytic stage Plasmodium falciparum NF54 in […] measured after 48 hrs by SYBR green dye based flow cytometry; details: NF54, 48 h
[3] = system: Plasmodium berghei; experiment: Anti-plasmodial activity against pre-erythrocytic stage Plasmodium berghei infected in human Huh-7 cells at 10 to 500 nM by bioluminescence assay; details: dose 10-500 nM
[4] = system: Anopheles stephensi; experiment: Anti-insecticidal activity against female Anopheles stephensi mosquitoes assessed as mosquito survival treated after 18 to 22 hrs starvation using 70 ng/ml compound containing human O+ blood meal via artificial membrane measured after 14 days relative to control
[5] = system: Plasmodium berghei; experiment: In vivo antiplasmodial activity against Balb/c mouse infected with luciferase expressing Plasmodium berghei infected in red blood cells assessed as parasitemia in blood by measuring bioluminescence at 50 mg/kg, oral gavage 4 consecutive treatment measured upto day 8; details: time 8.0 day
[6] = system: Plasmodium berghei; experiment: Anti-plasmodial activity against hepatic stage GFP-expressing Plasmodium berghei infected in human Huh-7 cells assessed as parasite invasion of host cells treated at IC90 measured after 2 hrs of post-infection by flow cytometry
[7] = system: Plasmodium berghei; experiment: Anti-plasmodial activity against hepatic stage GFP-expressing Plasmodium berghei infected in human Huh-7 cells assessed as parasite invasion of host cells treated at IC90 measured after 48 hrs of post-infection by flow cytometry
[8] = system: Plasmodium berghei; experiment: In vivo antiplasmodial activity against Balb/c mouse infected with luciferase expressing Plasmodium berghei infected in red blood cells assessed as parasitemia in blood by measuring bioluminescence at 2 mg/kg, oral gavage 4 consecutive treatment measured upto day 8; details: time 8.0 day

SMILES: CCC(C)[C@H]1O[C@]2(CC[C@@H]1C)C[C@@H]1C[C@@H](C/C=C(\C)[C@@H](O[C@H]3C[C@H](OC)[C@@H](O[C@H]4C[C@H](OO)[C@@H](O)[C@H](C)O4)[C@H](C)O3)[C@@H](C)/C=C/C=C3\CO[C@@H]4[C@H](O)C(C)=C[C@@H](C(=O)O1)[C@]34O)O2 (stereo not given in full)
- IC50 [1]: 1.5 µM
- IC90 [1]: 3.1 µM
- IC50 [2]: 0.46 µM
- Activity [3]: Dose-Dependent Effect

SMILES: CCC(C)[C@H]1O[C@]2(CC[C@@H]1C)C[C@@H]1C[C@@H](C/C=C(\C)[C@@H](O[C@H]3C[C@H](OC)[C@@H](OC(=O)CNC4CCNCC4)[C@H](C)O3)[C@@H](C)/C=C/C=C3\CO[C@@H]4[C@H](O)C(C)=C[C@@H](C(=O)O1)[C@]34O)O2 (stereo not given in full)
- IC50 [1]: 5.7 µM
- Activity [3]: inactive
- Activity [4]: Active

SMILES: CCC(C)[C@H]1O[C@]2(CC[C@@H]1C)C[C@@H]1C[C@@H](C/C=C(\C)[C@@H](O[C@H]3C[C@H](OC)[C@@H](OC(=O)CCl)[C@H](C)O3)[C@@H](C)/C=C/C=C3\CO[C@@H]4[C@H](O)C(C)=C[C@@H](C(=O)O1)[C@]34O)O2 (stereo not given in full)
- Activity [3]: inactive

SMILES: CCC(C)[C@H]1O[C@]2(CC[C@@H]1C)C[C@@H]1C[C@@H](C/C=C(\C)[C@@H](O)[C@@H](C)/C=C/C=C3\CO[C@@H]4[C@H](O)C(CO)=C[C@@H](C(=O)O1)[C@]34O)O2 (stereo not given in full)
- IC50 [1]: 1.64 µM
- Activity [3]: inactive
- Activity [4]: Active

SMILES: CCC(C)[C@H]1O[C@]2(CC[C@@H]1C)C[C@@H]1C[C@@H](C/C=C(\C)[C@@H](O[C@H]3C[C@H](OC)[C@@H](O)[C@H](C)O3)[C@@H](C)/C=C/C=C3\CO[C@@H]4[C@H](O[Si](C)(C)C(C)(C)C)C(C)=C[C@@H](C(=O)O1)[C@]34O)O2 (stereo not given in full)
- IC50 [1]: 2.91 µM
- IC50 [2]: 0.72 µM
- Activity [3]: Dose-Dependent Effect

SMILES: CCN(CC)CCCC(C)Nc1ccnc2cc(Cl)ccc12 (stereo not given)
- Activity [5]: Active

SMILES: CCC(C)[C@H]1O[C@]2(CC[C@@H]1C)C[C@@H]1C[C@@H](C/C=C(\C)[C@@H](O[C@H]3C[C@H](OC)[C@@H](O)[C@H](C)O3)[C@@H](C)/C=C/C=C3\CO[C@@H]4[C@H](O)C(CO)=C[C@@H](C(=O)O1)[C@]34O)O2 (stereo not given in full)
- IC50 [1]: 2.6 µM
- Activity [3]: inactive
- Activity [4]: Active

SMILES: CCC(C)[C@H]1O[C@]2(CC[C@@H]1C)C[C@@H]1C[C@@H](C/C=C(\C)[C@@H](O[C@H]3C[C@H](OC)[C@@H](O[C@H]4C[C@H](OO)[C@@H](OC(=O)CCl)[C@H](C)O4)[C@H](C)O3)[C@@H](C)/C=C/C=C3\CO[C@@H]4[C@H](O[Si](C)(C)C(C)(C)C)C(C)=C[C@@H](C(=O)O1)[C@]34O)O2 (stereo not given in full)
- Activity [3]: inactive

SMILES: CCOC(=O)c1c(C)nc(OCc2cn(CC(=O)O[C@H]3[C@H](C)O[C@@H](O[C@H]4[C@H](C)O[C@@H](O[C@@H]5/C(C)=C/C[C@@H]6C[C@@H](C[C@]7(CC[C@H](C)[C@@H](C(C)CC)O7)O6)OC(=O)[C@@H]6C=C(C)[C@@H](O)[C@H]7OC/C(=C\C=C\[C@@H]5C)[C@]76O)C[C@@H]4OC)C[C@@H]3OC)nn2)nc1-c1cc(OC)c(OC)cc1[N+](=O)[O-] (stereo not given in full)
- IC50 [1]: 2.33 µM
- IC90 [1]: 4.28 µM
- IC50 [2]: 0.03 µM
- Activity [6]: inactive
- Activity [7]: Active
- Activity [3]: Dose-Dependent Effect
- Activity [8]: inactive

SMILES: CCC(C)[C@H]1O[C@]2(CC[C@@H]1C)C[C@@H]1C[C@@H](C/C=C(\C)[C@@H](O[C@H]3C[C@H](OC)[C@@H](O)[C@H](C)O3)[C@@H](C)/C=C/C=C3\CO[C@@H]4[C@H](O)C(C)=C[C@@H](C(=O)O1)[C@]34O)O2 (stereo not given in full)
- IC50 [1]: 5.63 µM
- Activity [3]: inactive
- Activity [4]: Active

SMILES: CCC(C)[C@H]1O[C@]2(CC[C@@H]1C)C[C@@H]1C[C@@H](C/C=C(\C)[C@@H](O[C@H]3C[C@H](OC)[C@@H](O[C@H]4C[C@H](OO)[C@@H](O)[C@H](C)O4)[C@H](C)O3)[C@@H](C)/C=C/C=C3\CO[C@@H]4[C@H](O)C(CO)=C[C@@H](C(=O)O1)[C@]34O)O2 (stereo not given in full)
- IC50 [1]: 2.22 µM
- Activity [3]: inactive
- Activity [4]: Active

SMILES: CCC(C)[C@H]1O[C@]2(CC[C@@H]1C)C[C@@H]1C[C@@H](C/C=C(\C)[C@@H](O[C@H]3C[C@H](OC)[C@@H](O[C@H]4C[C@H](OO)[C@@H](OC(=O)CNC5CCNCC5)[C@H](C)O4)[C@H](C)O3)[C@@H](C)/C=C/C=C3\CO[C@@H]4[C@H](O)C(C)=C[C@@H](C(=O)O1)[C@]34O)O2 (stereo not given in full)
- IC50 [1]: 5.8 µM
- Activity [3]: inactive
- Activity [4]: inactive

SMILES: CCOC(=O)c1c(C)nc(OCc2cn(CC(=O)O[C@H]3[C@H](C)O[C@@H](O[C@@H]4/C(C)=C/C[C@@H]5C[C@@H](C[C@]6(CC[C@H](C)[C@@H](C(C)CC)O6)O5)OC(=O)[C@@H]5C=C(C)[C@@H](O)[C@H]6OC/C(=C\C=C\[C@@H]4C)[C@]65O)C[C@@H]3OC)nn2)nc1-c1cc(OC)c(OC)cc1[N+](=O)[O-] (stereo not given in full)
- IC50 [1]: 1.54 µM
- IC90 [1]: 3.18 µM
- IC50 [2]: 0.11 µM
- Activity [6]: inactive
- Activity [7]: Active
- Activity [3]: Dose-Dependent Effect
- Activity [8]: inactive

SMILES: CCC(C)[C@H]1O[C@]2(CC[C@@H]1C)C[C@@H]1C[C@@H](C/C=C(\C)[C@@H](O[C@H]3C[C@H](OC)[C@@H](O[C@H]4C[C@H](OO)[C@@H](OC(=O)CCl)[C@H](C)O4)[C@H](C)O3)[C@@H](C)/C=C/C=C3\CO[C@@H]4[C@H](O)C(C)=C[C@@H](C(=O)O1)[C@]34O)O2 (stereo not given in full)
- IC50 [1]: 2.61 µM
- IC50 [2]: 0.3 µM
- Activity [3]: Dose-Dependent Effect
- Activity [4]: Active

SMILES: CCC(C)[C@H]1O[C@]2(CC[C@@H]1C)C[C@@H]1C[C@@H](C/C=C(\C)[C@@H](O[C@H]3C[C@H](OC)[C@@H](O[C@H]4C[C@H](OO)[C@@H](O)[C@H](C)O4)[C@H](C)O3)[C@@H](C)/C=C/C=C3\CO[C@@H]4[C@H](O[Si](C)(C)C(C)(C)C)C(C)=C[C@@H](C(=O)O1)[C@]34O)O2 (stereo not given in full)
- IC50 [1]: 3.69 µM
- IC50 [2]: 0.7 µM
- Activity [3]: Dose-Dependent Effect

SMILES: CCC(C)[C@H]1O[C@]2(CC[C@@H]1C)C[C@@H]1C[C@@H](C/C=C(\C)[C@@H](O[C@H]3C[C@H](OC)[C@@H](OC(=O)CCl)[C@H](C)O3)[C@@H](C)/C=C/C=C3\CO[C@@H]4[C@H](O[Si](C)(C)C(C)(C)C)C(C)=C[C@@H](C(=O)O1)[C@]34O)O2 (stereo not given in full)
- Activity [3]: inactive
